We go through 13 compounds from EP3436024B1, “3-BETA-METHOXY-PREG FOR USE IN THE TREATMENT OF TREATMENT RESISTANT DEPRESSION” (Mapreg, priority 2016, dated 2017).

Assay [1] concerns the target purified tubulin and MAP2 (Homo sapiens, UniProt P11137). Kind of assay: Microtubule polymerization activity (optical density at 345 nm). The class given is biochemical. The note with it: increase in optical density at 345 nm, 37 °C, in the presence of GTP. As to the method:
Activity is measured by the increase in optical density at 345 nm of a mixture of purified tubulin and MAP2, incubated at 37 °C in the presence of GTP.

Another assay concerns PC12 cells. The assay can be described thus: Stimulation of neuritic sprouting. The note with it: PC12 cells differentiated with NGF (10 ng/ml), steroid 30 µM, 3 days; relative to PREG. It counts as cell-based. The procedure: Stimulation of neuritic sprouting is conducted on PC12 cells differentiated in the presence of NGF (10 ng/ml) and the steroid being tested (30 µM) for 3 days. For each condition, the average length of the longest 200 neurites […] is measured simultaneously for 3 cultures.

In assay [2] the test system is microtubule-associated protein2 (MAP2). Kind of assay: Binding (affinity) by displacement of PREG-3H. The note with it: index of binding.
The test system of assay [3] is Wistar Kyoto (WKY) rats. Kind of assay: Anxious-like behavior: activity in the central square of the open-field arena, WKY rats. The note with it: acute, MAP4343 10 mg/kg s.c., fluoxetine 10 mg/kg i.p., ketamine 30 mg/kg i.p. The class given is in vivo, rat. The procedure: (§1) After a 6-day period of acclimatization, all experimental groups received daily successive subcutaneous (250 µl per rat) and intraperitoneal (1 ml/kg) injections. WI rats received injection of vehicle (sesame oil + saline) while WKY rats were randomly assigned to […], as follow: KWY rats receiving only vehicle (sesame oil + saline) and WKY rats treated with MAP4343 (10 mg/kg, s.c.; rats received in parallel i.p. injections of saline), fluoxetine (10 mg/kg i.p., rats received in parallel s.c. injections of sesame oil) or ketamine (30 mg/kg, i.p.; rats received in parallel s.c. injections of sesame oil) (see Figure 3).
(§2) After, a 6-day period of acclimatization, the acute phase of treatment started for 4 days during behavioral tests were performed (Figure 3). All animals were injected 1h30 before the starting of behavioral test.
(§3) The animals were individually placed in the open field arena (OFA) (70 x 100 x 70 cm), with a central square (35 x 50 cm), located in a 50 lux illuminated room and videotaped during 3 min using a computerized system (VideoTrack V2.5, ViewPoint, Lyon, France).
(§4) OFA allows firstly the evaluation of total locomotor activity (LMA) thereby measuring the total distance travelled in the arena (in cm). Secondly, measurements of the activity in the center of the arena like (i) the number of entries in the center of arena and (ii) the total time spent in the center of arena (in sec) provide cues of anxiety-like behavior (Prut and Belzung, 2003). All these behavioral parameters were instantaneously measured automatically with the VideoTrack V2.5 software from the videos.

Assay [4] has as its system Wistar Kyoto (WKY) rats. Kind of assay: Locomotor activity in the open-field arena, WKY rats. It counts as in vivo, rat. The note with it: acute, fluoxetine 10 mg/kg i.p., ketamine 30 mg/kg i.p., 3 min, Fig. 5A. The procedure:
as §1, §2, §3, §4

Assay [5] has as its system Wistar Kyoto (WKY) rats. The assay can be described thus: Elevated-plus maze (EPM), WKY rats. The class given is in vivo, rat. Conditions: acute, MAP4343 10 mg/kg s.c., fluoxetine 10 mg/kg, ketamine 30 mg/kg i.p., Fig. 5D. The procedure:
as §1, §2
We used the elevated-plus maze (EPM) as an assay of anxiety-related behavior in rodents (Walf and Frye, 2007). Rats were initially placed in the center of the plus-maze, consisting of two open arms (50 x 10 cm) and two closed arms (50 x 10 cm enclosed by 40 cm walls), in a 50 lux illuminated room and videotaped during 5 min using a computerized system (VideoTrack V2.5, ViewPoint, Lyon, France). The time spent in the open versus closed arms was blindly measured by two independent experimenters from the recorded video, and the open arm-index was calculated as follow: time in the open arms (sec) / [time in open arms (sec) + time in closed arms (sec)].

For assay [6], the target named is T1, human progesterone receptor(PR) (Homo sapiens, UniProt P06401).
T1 construct: expressed in transfected cells; host or cells: HEK293T
T1 sequence (P06401 1-933): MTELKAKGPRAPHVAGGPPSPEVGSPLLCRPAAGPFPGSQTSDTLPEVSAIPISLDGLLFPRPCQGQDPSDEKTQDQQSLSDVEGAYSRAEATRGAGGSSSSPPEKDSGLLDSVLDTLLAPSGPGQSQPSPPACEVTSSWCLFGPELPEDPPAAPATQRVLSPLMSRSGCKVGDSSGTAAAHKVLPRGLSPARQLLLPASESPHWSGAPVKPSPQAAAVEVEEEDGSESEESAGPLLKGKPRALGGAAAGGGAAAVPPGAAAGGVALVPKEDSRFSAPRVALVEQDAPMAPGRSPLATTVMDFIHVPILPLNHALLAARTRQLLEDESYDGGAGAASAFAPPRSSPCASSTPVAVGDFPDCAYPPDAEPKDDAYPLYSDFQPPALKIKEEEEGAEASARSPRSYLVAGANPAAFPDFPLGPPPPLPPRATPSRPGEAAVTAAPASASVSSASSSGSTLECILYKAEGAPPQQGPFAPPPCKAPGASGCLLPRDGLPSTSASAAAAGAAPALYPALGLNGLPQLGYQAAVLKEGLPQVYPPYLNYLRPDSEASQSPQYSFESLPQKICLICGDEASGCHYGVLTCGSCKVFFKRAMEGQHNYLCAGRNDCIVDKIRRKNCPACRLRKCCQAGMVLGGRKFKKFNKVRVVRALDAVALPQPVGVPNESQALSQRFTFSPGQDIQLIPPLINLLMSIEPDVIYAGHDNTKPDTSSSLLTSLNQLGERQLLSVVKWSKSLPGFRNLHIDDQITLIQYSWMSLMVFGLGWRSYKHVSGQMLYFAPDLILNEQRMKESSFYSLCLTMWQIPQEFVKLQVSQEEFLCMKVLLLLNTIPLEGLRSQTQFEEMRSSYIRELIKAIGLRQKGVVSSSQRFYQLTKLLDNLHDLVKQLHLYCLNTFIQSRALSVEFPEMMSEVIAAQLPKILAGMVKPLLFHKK
The assay can be described thus: Test of progesterone receptor agonist activity (MMTV-luciferase transactivation in transfected HEK293T cells). It counts as cell-based. The note with it: 24 hours, increasing amounts, Figure 1. As to the method: The main experimental setting used is the following: HEK293T cells were transiently transfected, using calcium phosphate precipitation technology, with expression vectors pSG5hPR (which permits expression of human progesterone receptor(PR)), pFC31-luc (contains the luciferase gene under the control of the MMTV promoter, which is in turn activated by binding of a progestin to progesterone receptor) and pcbetagal (which permits expression of betagalactosidase), and cultured during 24 hours with increasing amounts of various compositions: • 1. […] Test of progesterone receptor […] activity: transfected cells were cultured with progesterone (1 nM) and increasing amounts of RU486 (a well-known progesterone receptor antagonist) or 3-methoxy-pregnenolone. With this setting, a compound with progesterone receptor antagonist activity competes with progesterone for the occupation of progesterone receptor and results in a progressive loss of transactivation activity when the amount of this compound is increased compared to progesterone.

Sequence of purified tubulin and MAP2 (P11137 whole entry): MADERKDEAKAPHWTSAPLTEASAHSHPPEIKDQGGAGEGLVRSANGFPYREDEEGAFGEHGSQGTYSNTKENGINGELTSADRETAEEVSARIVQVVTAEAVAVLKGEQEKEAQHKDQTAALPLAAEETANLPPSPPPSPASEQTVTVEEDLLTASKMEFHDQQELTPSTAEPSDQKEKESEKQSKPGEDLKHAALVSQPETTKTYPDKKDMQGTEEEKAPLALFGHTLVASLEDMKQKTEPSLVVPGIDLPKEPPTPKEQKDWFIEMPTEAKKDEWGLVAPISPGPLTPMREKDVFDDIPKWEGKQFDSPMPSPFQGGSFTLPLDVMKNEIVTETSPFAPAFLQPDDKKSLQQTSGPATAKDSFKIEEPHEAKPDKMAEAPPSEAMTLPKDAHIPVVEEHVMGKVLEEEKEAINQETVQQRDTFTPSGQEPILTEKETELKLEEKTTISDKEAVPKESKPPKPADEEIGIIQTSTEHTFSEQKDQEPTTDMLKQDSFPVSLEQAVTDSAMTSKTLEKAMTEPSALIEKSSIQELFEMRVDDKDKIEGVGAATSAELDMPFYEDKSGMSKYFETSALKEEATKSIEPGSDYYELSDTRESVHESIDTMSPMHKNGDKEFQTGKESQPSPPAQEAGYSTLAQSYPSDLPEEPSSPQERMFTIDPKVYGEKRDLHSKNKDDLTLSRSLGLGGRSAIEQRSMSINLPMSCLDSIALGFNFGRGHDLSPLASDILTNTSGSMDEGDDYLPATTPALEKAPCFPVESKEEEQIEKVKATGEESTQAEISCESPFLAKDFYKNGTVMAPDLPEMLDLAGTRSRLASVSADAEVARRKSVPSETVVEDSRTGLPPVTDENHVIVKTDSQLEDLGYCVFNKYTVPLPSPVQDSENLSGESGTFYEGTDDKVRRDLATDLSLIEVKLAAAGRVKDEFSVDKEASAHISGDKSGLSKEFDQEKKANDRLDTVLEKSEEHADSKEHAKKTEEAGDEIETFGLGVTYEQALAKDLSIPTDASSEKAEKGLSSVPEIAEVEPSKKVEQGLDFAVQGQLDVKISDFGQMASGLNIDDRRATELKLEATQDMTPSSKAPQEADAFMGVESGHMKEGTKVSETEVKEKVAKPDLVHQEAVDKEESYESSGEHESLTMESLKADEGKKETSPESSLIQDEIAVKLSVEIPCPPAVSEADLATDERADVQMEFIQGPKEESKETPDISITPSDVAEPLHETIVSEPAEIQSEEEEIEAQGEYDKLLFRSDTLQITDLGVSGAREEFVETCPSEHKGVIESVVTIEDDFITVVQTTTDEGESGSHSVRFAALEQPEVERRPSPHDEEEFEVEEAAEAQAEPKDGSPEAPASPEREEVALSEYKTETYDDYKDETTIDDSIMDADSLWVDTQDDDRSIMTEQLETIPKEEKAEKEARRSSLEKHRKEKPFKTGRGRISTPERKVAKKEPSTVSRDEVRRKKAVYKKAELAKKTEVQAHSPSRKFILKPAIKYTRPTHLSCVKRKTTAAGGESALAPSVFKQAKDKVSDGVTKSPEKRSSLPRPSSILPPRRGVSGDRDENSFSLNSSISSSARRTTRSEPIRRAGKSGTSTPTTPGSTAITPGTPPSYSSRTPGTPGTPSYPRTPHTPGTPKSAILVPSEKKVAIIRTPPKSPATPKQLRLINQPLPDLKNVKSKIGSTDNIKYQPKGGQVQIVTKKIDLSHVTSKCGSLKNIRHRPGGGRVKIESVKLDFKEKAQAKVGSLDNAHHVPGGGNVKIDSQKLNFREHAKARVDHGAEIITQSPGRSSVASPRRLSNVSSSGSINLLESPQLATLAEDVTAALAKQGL

As to `CO[C@H]1CC[C@@]2(C)[C@@H](CC[C@@H]3[C@@H]2CC[C@]2(C)[C@@H](C(C)=O)CC[C@@H]32)C1` (stereo in doubt) [3β-methoxy-5a-pregnane-20-one], in assay [1], the Activity is reported as 10% of PREG. Besides, in the assay with PC12 cells, the Neuritic sprouting result is reported as “+++”. The Affinity in assay [2] is 87% of PREG.

For `CC(=O)[C@H]1[C@H](C)C[C@H]2[C@@H]3CC[C@H]4C[C@@H](O)CC[C@]4(C)[C@H]3CC[C@@]21C` [3β-hydroxy-5a-pregnane-20-one-16a-methyl], the Activity in assay [1] was 53% of PREG. The Affinity in assay [2] is 57% of PREG.

In the case of `CO[C@H]1CC[C@@]2(C)[C@@H](CC[C@@H]3[C@@H]2CC[C@]2(C)[C@@H]([C@@H](C)O)CC[C@@H]32)C1` [3β-methoxy-5a-pregnane-20β-ol], the Activity in assay [1] is listed as 65% of PREG. The Neuritic sprouting result in the assay with PC12 cells is “++ (equal to)”. Also, the Affinity in assay [2] is on record as 65% of PREG.

Regarding `CO[C@H]1CC[C@@]2(C)C(=CC[C@H]3C4=CC[C@H](C(C)=O)[C@@]4(C)CC[C@@H]32)C1` [3β-methoxy-pregna-5,14-diene-20-one], the Activity in assay [1] is given as 50% of PREG. The Neuritic sprouting result in the assay on PC12 cells was “+ (stimulation is lower than)”. Also, the Affinity in assay [2] is 102% of PREG.

Take `CO[C@H]1CC[C@@]2(C)C(=CCC3C2CC[C@@]2(C)C3CC[C@@]2(C(C)=O)C(Cl)Cl)C1` (stereo partly drawn) [3β-methoxy-pregna-5-ene-20-one-17a-dichloromethyl]: the Activity in assay [1] is reported as 113% of PREG. In addition, the Neuritic sprouting result with PC12 cells is reported as “+++”. Moreover, the Affinity in assay [2] was 53% of PREG.

With `CC(=O)[C@@]12O[C@@H]1C[C@H]1[C@@H]3CC=C4C[C@@H](O)CC[C@]4(C)[C@H]3CC[C@@]12C` [PREG-16a,17a-epoxy], in assay [1], the Activity is 54% of PREG. Moreover, the Neuritic sprouting entry in the assay with PC12 cells is listed as “+ (stimulation is lower than)”. In assay [2], the Affinity was 41% of PREG.

In the case of `CC(=O)[C@@]12C[C@@H]1C[C@H]1[C@@H]3CC=C4C[C@@H](O)CC[C@]4(C)[C@H]3CC[C@@]12C` [PREG-16a,17a-methylene], in assay [1], the Activity is listed as 49% of PREG. Besides, the Neuritic sprouting result in the assay with PC12 cells is on record as “+ (stimulation is lower than)”. In assay [2], the Affinity is reported as 62% of PREG.

Turning to `CC(=O)[C@H]1[C@H](C)C[C@H]2[C@@H]3CC=C4C[C@@H](O)CC[C@]4(C)[C@H]3CC[C@@]21C` [PREG-16a-methyl], the Activity in assay [1] is on record as 70% of PREG. Also, in the assay with PC12 cells, the Neuritic sprouting result is recorded as “++ (equal to)”. Also, in assay [2], the Affinity is 80% of PREG.

For the compound `CC(=O)[C@H]1[C@@H](C)C[C@H]2[C@@H]3CC=C4C[C@@H](O)CC[C@]4(C)[C@H]3CC[C@@]21C` [PREG-168-methyl], in assay [1], the Activity is given as 67% of PREG. The Affinity in assay [2] was 63% of PREG.

As for `CC(=O)O[C@H](C)[C@H]1CC[C@H]2[C@@H]3CC=C4C[C@@H](O)CC[C@]4(C)[C@H]3CC[C@]12C` [Pregna-5-ene-3β,20β-diol-20-acetate], the Activity in assay [1] is 108% of PREG. For the same compound, in the assay on PC12 cells, the Neuritic sprouting entry is “++ (equal to)”. Besides, in assay [2], the Affinity is on record as 60% of PREG.

For `CC(=O)[C@H]1CC[C@H]2[C@@H]3CC=C4C[C@@H](O)CC[C@]4(C)[C@H]3CC[C@]12C` [Pregnenolone (PREG), 3β-hydroxypregn-5α-en-20α-one, reference compound], the Activity in assay [1] is 100% of PREG. Also, the Neuritic sprouting entry with PC12 cells is recorded as “++ (equal to)”. Also, in assay [2], the Affinity is listed as 100% of PREG.

As for `CNC1(c2ccccc2Cl)CCCCC1=O` (stereo not shown) [ketamine], the “number of entries in the central square of OFA, change as compared to WKY receiving only vehicle” value in the assay on Wistar Kyoto (WKY) rats [3] (Fig. 5B) is recorded as “failed to significantly modify”. For the same compound, the “time spent in the center of open-field, change as compared to WKY receiving vehicle” value in the assay on Wistar Kyoto (WKY) rats [3] (Fig. 5C) is recorded as “did not induce any significant change”. The “locomotor activity (total distance travelled in the open-field arena), change as compared to WKY receiving vehicle” value in the assay on Wistar Kyoto (WKY) rats [4] (MAP4343 10 mg/kg s.c.) is “no significant change”. Also, the “locomotor activity (total distance travelled in the open-field arena), change as compared to MAP4343-treated WKY” value in the assay with Wistar Kyoto (WKY) rats [4] is on record as “no significant change”. Besides, in the assay with Wistar Kyoto (WKY) rats [5], the “open-arm (OA) index, change when compared to WKY receiving vehicle alone” value is given as -29%.

Take `CC(=O)[C@H]1CC[C@H]2[C@@H]3CCC4=CC(=O)CC[C@]4(C)[C@H]3CC[C@]12C` [progesterone, reference compound]: in assay [6], the “progesterone receptor agonist activity (transactivation activity leading to the expression of luciferase)” value is reported as “permits a transactivation activity”.
